Drawing on ChEMBL document CHEMBL3414567, “Novel hybrid DHPM-fatty acids: synthesis and activity against glioma cell growth in vitro” (Eur J Med Chem, 2015), this text covers Activity and inhibition of growth for seven molecules.

Structures are written as SMILES. Activity calls are given as the source filed them. The calls are words filed in the database; no cut-off is given here.

Series [1] concerns C6. Put plainly: Cytotoxicity against rat C6 cells assessed as reduction of cell viability at 50 uM after 24 hrs by MTT assay. The class given is functional, cell-based. For orientation: Formazan colour is commonly taken as a measure of viable cells.
A short description of series [2]: Cytotoxicity against human U138MG cells assessed as reduction of cell viability at 50 uM after 24 hrs by MTT assay relative to control. Format: functional, U138-MG.
Series [3] relates to C6. Description: Cytotoxicity against rat C6 cells assessed as reduction of cell viability at 25 uM after 24 hrs by MTT assay. Format: functional, cell-based.
Series [4] is described as follows: Cytotoxicity against Wistar rat organotypic hippocampal slice cultures assessed as neural cell death at 200 uM after 24 hrs by propidium iodide staining-based fluorescence image analysis. The arrangement: species or system Hippocampus.
Series [5] is described as follows: Cytotoxicity against human U138MG cells assessed as reduction of cell viability at 10 uM after 24 hrs by MTT assay relative to control. Format: functional, U138-MG.
For series [6], the system named is C6. Description: Cytotoxicity against rat C6 cells assessed as growth inhibition at 150 uM relative to control. Format: functional. The conditions noted are these: read-out: GI.
Series [7] can be described thus: Cytotoxicity against human U138MG cells assessed as growth inhibition at 150 uM relative to control. Format: functional. The conditions noted are these: U138-MG, read-out: GI.
Series [8] deals with C6. Description: Cytotoxicity against rat C6 cells assessed as reduction of cell viability after 24 hrs by MTT assay. Format: functional, cell-based.
The next series deals with U138-MG. Put plainly: Cytotoxicity against human U138MG cells assessed as reduction of cell viability after 24 hrs by MTT assay. The class given is functional, cell-based.

Regarding `CCCCCCCCCCCCCCCCOC(=O)C1=C(C)NC(=S)NC1c1cccc(O)c1` (stereo unspecified), the outcome with C6 [1] and in the series with C6 [3] was Active. Also, the Activity is given as 70% in series [2] and “Non-toxic” in series [4].
With `CCCCCCCC/C=C\CCCCCCCCOC(=O)C1=C(C)NC(=O)NC1c1cccc(O)c1` (stereo unspecified), the result with C6 [1] and in the series with C6 [3] was Active. For the same molecule, the values for the Activity in series [2] and in [4] were 70% and “Non-toxic”, respectively.
With `CCCCCCCC/C=C\CCCCCCCCOC(=O)C1=C(C)NC(=S)NC1c1cccc(O)c1` (stereo unspecified), in the series on C6 [1], the result was Active. The Activity was 70% in series [2] and “Non-toxic” in series [4].
Take `CCCCCCCCCCCCCCCCCCOC(=O)C1=C(C)NC(=S)NC1c1cccc(O)c1` (stereo unspecified): the result with C6 [1] was inactive.
Consider `CCCCCCCCCCCCCCCCOC(=O)C1=C(C)NC(=O)NC1c1cccc(O)c1` (stereo unspecified), for which the outcome in the series with C6 [1] was Active. In addition, the Activity was 50% in series [5], 70% in series [2] and “Non-toxic” in series [4].
With `CCOC(=O)C1=C(C)NC(=S)NC1c1cccc(O)c1` (stereo unspecified) [MONASTROL], the inhibition of growth at 150 µM (with C6 [6]; in series [7]) was 30% throughout.
Take `CCCCCCCC/C=C\CCCCCCCCOC(=O)C1=C(C)NC(=O)NC1c1ccccc1` (stereo unspecified): the Activity entry in the series with C6 [8] was “Dose-dependent effect”; in series [4], “Non-toxic”; in the series with U138-MG it was “Dose-dependent effect”.
